In publication PMC8970883, “Simultaneous Determination of Seven Phenolic Acids, Two Flavonoids, and Tussilagone in Rat Plasma after Administration of Farfarae Flos Extract by LC–MS/MS” (Evidence-based Complementary and Alternative Medicine : eCAM, 2022):

experiment: Pharmacokinetic study in rats after intragastric administration of Farfarae Flos extract (plasma, LC-MS/MS); assay type: in vivo; details: male, rat, plasma, po, 3.9 g/kg, oral Farfarae Flos extract 3.9 g·kg^−1, mean ± SD
From the text: A high-performance liquid chromatography instrument was used to separate three types of compounds (Agilent 1200 series, USA). The HPLC instrument is composed of four parts; a G1322A degasser, G1312A Bin Pump, G1367B auto-sampler, and G1316A thermostatic column compartment. Three types of compounds and three internal standards (ISs) were separated on an Eclipse Plus C18 (4.6 × 100 mm, 1.8 μm). The mobile phase was composed of formic acid aqueous solution (A) and formic acid methanol solution (B). The concentration of formic acid in both A and B solution was 0.1% (v/v). The gradient elution was as follows. The proportion of 10% B changes to 40% from 0 min to 3mins. 40% B changes to 90% from 16 to 18 min. B is maintained at 100% from 19 to 28 min. The flow rate, sample injected volume, and column temperature was 0.35 mL·min^−1, 10 μL, and 35°C, respectively.
Quantitative analysis of all samples was performed on Sciex API 3200 with an electrospray ionization (ESI) source. Analyst 1.6.2 workstation for instrument operation, data management, and data analysis were employed to analyze and process data (AB, Sciex). Ten analyzed compounds and three ISs were optimized during multiple reactions monitoring (MRM). […] MRM parameters of CCLA were set at 353.1-191.0. […] MRM parameters of IAB were set as 515.3-353.2 and MRM parameters of IAA were set at 515.2-353.0. MRM parameters of IAC and tussilagone were set as 515.3-352.9, 391.4-217.4, respectively.
Twenty male rats (4 months old, weight 240 ± 20 g) were obtained commercially from Vital River Laboratory Animal Company (Beijing, China). Before the pharmacokinetic experiments, they were free to eat food and drink water for one week for adapting to the environment when the dark light cycle was 12 hours, while the temperature was maintained at 25 ± 5°C. The animal experiments were guided and strictly approved by Tianjin Hospital animal ethics committee. They were fasted for 12 hours and could only drink freely water before intragastric administration of Farfarae Flos extract. Ten rats in each group were employed for eliminating data variation caused by different animal individuals. All rats in groups 1 and group 2 were orally administrated one time at two dosages of Farfarae Flos extract (carboxymethyl cellulose sodium salt (0.5%) was used to suspend the extract to prepare the administration solution 3.90 g·kg^−1 and 7.80 g·kg^−1), respectively. Rats were anesthetized with ether. The heparinized 1.5 mL polythene tube was used to collect bank plasma samples before administering dose of the extract. About 250 μL plasma samples were collected at each collecting points of 5 min, 10 min, 0.25 h, 0.50 h, 0.75 h, 1 h, 2 h, 4 h, 8 h, 12 h, 24 h, and 36 h via fossa orbitalis after dosing. All plasma samples from collecting points need to be centrifuged at 4,000 rpm for ten minutes. The supernatant fluid of centrifuged plasma samples was obtained and immediately stored at −20°C in a refrigerator until they were analyzed.
The maximum concentration (Cmax) and the time to reach the maximum concentration (Tmax) of ten target compounds were directly calculated by the real concentration-time data in the plasma. The data were expressed as mean ± SD.
Ten microliters of ISs solution (contained puerarin, ferulic acid, and artemisinin) and the plasma sample (100 μL) were added into a clean tube, and then acetonitrile (400 μL) was added to precipitate protein. After centrifugation at 14000 rpm for 10 minutes, a mild nitrogen flow was used to evaporate the liquid of the supernatant to dryness. Then, the residue was dissolved in methanol (100 μL). The solution was vortexed for 3 min, mixed for 3 minutes with ultrasound, and centrifuged for 10 min. Finally, the solution (10 μL) was used to detect concentration of ten target compounds in rat plasma.

Row | Compound | Cmax
1 | O=C(/C=C/c1ccc(O)c(O)c1)O[C@@H]1C[C@@](O)(C(=O)O)C[C@@H](O)[C@@H]1O [NCLA, neochlorogenic acid] | 74 ± 52 ng/mL
2 | C[C@@H]1O[C@@H](OC[C@H]2O[C@@H](Oc3c(-c4ccc(O)c(O)c4)oc4cc(O)cc(O)c4c3=O)[C@H](O)[C@@H](O)[C@@H]2O)[C@H](O)[C@H](O)[C@H]1O [Rutin, rutin] | 17.9 ± 17.6 ng/mL

same assay, conditions: male, rat, plasma, po, 7.8 g/kg, oral Farfarae Flos extract 7.8 g·kg^−1, mean ± SD

Row | Compound | Cmax
3 | O=C(/C=C/c1ccc(O)c(O)c1)O[C@@H]1C[C@@](O)(C(=O)O)C[C@@H](O)[C@@H]1O [NCLA, neochlorogenic acid] | 486 ± 273 ng/mL
4 | C[C@@H]1O[C@@H](OC[C@H]2O[C@@H](Oc3c(-c4ccc(O)c(O)c4)oc4cc(O)cc(O)c4c3=O)[C@H](O)[C@@H](O)[C@@H]2O)[C@H](O)[C@H](O)[C@H]1O [Rutin, rutin] | 76.7 ± 55.5 ng/mL

same assay, conditions: male; rat plasma, oral Farfarae Flos extract 3.9 g·kg^−1, mean ± SD

Row | Tmax | Compound | half-life
5 | 0.69 ± 0.19 h | O=C(/C=C/c1ccc(O)c(O)c1)O[C@@H]1C[C@@](O)(C(=O)O)C[C@@H](O)[C@@H]1O [NCLA, neochlorogenic acid] | 1.61 ± 1.1 h
6 |  | C[C@@H]1O[C@@H](OC[C@H]2O[C@@H](Oc3c(-c4ccc(O)c(O)c4)oc4cc(O)cc(O)c4c3=O)[C@H](O)[C@@H](O)[C@@H]2O)[C@H](O)[C@H](O)[C@H]1O [Rutin, rutin] | 0.61 ± 0.46 h

same assay, conditions: male; rat plasma, oral Farfarae Flos extract 3.9 g·kg^−1, mean ± SD; read-out: MRT(0–24h)

Row | Compound | MRT last
7 | O=C(/C=C/c1ccc(O)c(O)c1)O[C@@H]1C[C@@](O)(C(=O)O)C[C@@H](O)[C@@H]1O [NCLA, neochlorogenic acid] | 4.35 ± 2.74 h
8 | C[C@@H]1O[C@@H](OC[C@H]2O[C@@H](Oc3c(-c4ccc(O)c(O)c4)oc4cc(O)cc(O)c4c3=O)[C@H](O)[C@@H](O)[C@@H]2O)[C@H](O)[C@H](O)[C@H]1O [Rutin, rutin] | 1.95 ± 1.06 h

same assay, conditions: male; rat plasma, oral Farfarae Flos extract 3.9 g·kg^−1, mean ± SD; read-out: MRT(0–∞)

Row | Compound | MRT inf
9 | O=C(/C=C/c1ccc(O)c(O)c1)O[C@@H]1C[C@@](O)(C(=O)O)C[C@@H](O)[C@@H]1O [NCLA, neochlorogenic acid] | 7.9 ± 7.34 h
10 | C[C@@H]1O[C@@H](OC[C@H]2O[C@@H](Oc3c(-c4ccc(O)c(O)c4)oc4cc(O)cc(O)c4c3=O)[C@H](O)[C@@H](O)[C@@H]2O)[C@H](O)[C@H](O)[C@H]1O [Rutin, rutin] | 3.06 ± 1.3 h

same assay, conditions: male; rat plasma, oral Farfarae Flos extract 7.8 g·kg^−1, mean ± SD

Row | half-life | Compound | Tmax
11 | 1.49 ± 0.54 h | O=C(/C=C/c1ccc(O)c(O)c1)O[C@@H]1C[C@@](O)(C(=O)O)C[C@@H](O)[C@@H]1O [NCLA, neochlorogenic acid] | 0.36 ± 0.13 h
12 |  | C[C@@H]1O[C@@H](OC[C@H]2O[C@@H](Oc3c(-c4ccc(O)c(O)c4)oc4cc(O)cc(O)c4c3=O)[C@H](O)[C@@H](O)[C@@H]2O)[C@H](O)[C@H](O)[C@H]1O [Rutin, rutin] | 0.32 ± 0.12 h

same assay, conditions: male; rat plasma, oral Farfarae Flos extract 7.8 g·kg^−1, mean ± SD; read-out: MRT(0–24h)

Row | Compound | MRT last
13 | O=C(/C=C/c1ccc(O)c(O)c1)O[C@@H]1C[C@@](O)(C(=O)O)C[C@@H](O)[C@@H]1O [NCLA, neochlorogenic acid] | 6.33 ± 2.33 h
14 | C[C@@H]1O[C@@H](OC[C@H]2O[C@@H](Oc3c(-c4ccc(O)c(O)c4)oc4cc(O)cc(O)c4c3=O)[C@H](O)[C@@H](O)[C@@H]2O)[C@H](O)[C@H](O)[C@H]1O [Rutin, rutin] | 2.79 ± 0.24 h

same assay, conditions: male; rat plasma, oral Farfarae Flos extract 7.8 g·kg^−1, mean ± SD; read-out: MRT(0–∞)

Row | Compound | MRT inf
15 | O=C(/C=C/c1ccc(O)c(O)c1)O[C@@H]1C[C@@](O)(C(=O)O)C[C@@H](O)[C@@H]1O [NCLA, neochlorogenic acid] | 8.61 ± 2.66 h
16 | C[C@@H]1O[C@@H](OC[C@H]2O[C@@H](Oc3c(-c4ccc(O)c(O)c4)oc4cc(O)cc(O)c4c3=O)[C@H](O)[C@@H](O)[C@@H]2O)[C@H](O)[C@H](O)[C@H]1O [Rutin, rutin] | 6.02 ± 4.7 h

same assay, conditions: rat plasma, oral Farfarae Flos extract 3.9 g·kg^−1, mean ± SD

Row | Compound | AUC(0–24h) | AUC(0–∞) | T max
17 | O=C(/C=C/c1ccc(O)c(O)c1)O[C@@H]1C[C@@](O)(C(=O)O)C[C@@H](O)[C@@H]1O [NCLA, neochlorogenic acid] | 210.2 ± 126.4 ng/mL ∗ h | 239.3 ± 125.3 ng/mL ∗ h | 
18 | C[C@@H]1O[C@@H](OC[C@H]2O[C@@H](Oc3c(-c4ccc(O)c(O)c4)oc4cc(O)cc(O)c4c3=O)[C@H](O)[C@@H](O)[C@@H]2O)[C@H](O)[C@H](O)[C@H]1O [Rutin, rutin] | 39.49 ± 59.42 ng/mL ∗ h | 42.77 ± 60.06 ng/mL ∗ h | 0.39 ± 0.16 h

same assay, conditions: rat plasma, oral Farfarae Flos extract 7.8 g·kg^−1, mean ± SD

Row | AUC(0–∞) | Compound | AUC(0–24h) | t 1/2
19 | 1028 ± 3007 ng/mL ∗ h | O=C(/C=C/c1ccc(O)c(O)c1)O[C@@H]1C[C@@](O)(C(=O)O)C[C@@H](O)[C@@H]1O [NCLA, neochlorogenic acid] | 965.7 ± 295.9 ng/mL ∗ h | 
20 |  | C[C@@H]1O[C@@H](OC[C@H]2O[C@@H](Oc3c(-c4ccc(O)c(O)c4)oc4cc(O)cc(O)c4c3=O)[C@H](O)[C@@H](O)[C@@H]2O)[C@H](O)[C@H](O)[C@H]1O [Rutin, rutin] | 104.04 ± 53.04 ng/mL ∗ h | 0.82 ± 0.51 h

experiment: Stability of QC samples in rat plasma (24 h, freeze-thaw, 4 weeks); assay type: in vitro ADME; details: high concentration level (3000-30000 ng·mL^−1), freeze-thaw cycles −20°C to 20°C, six replicates
Procedure: Stock solution of 10 analytical compounds (1.00 mg·mL^−1) and three internal standards (ISs) was dissolved in methanol and placed in the refrigerator before testing. Methanol was used to prepare ferulic acid (IS1), puerarin (IS2), and artemisinin (IS3) solutions to reach a concentration of 1 μg mL^−1, respectively. A specific volume of each analyte stock solution is mixed together to prepare the standard working solution containing 10 analytes with a concentration of 10 times at LLOQ and three levels (high, medium, and low). Quality control (QC) samples for methodological validation were prepared to obtain the final concentration by adding standard working solution (10 μL) into blank plasma samples (100 μL).
Four concentration levels of ICB and ICA were 4, 12, 400, and 12000 ng mL^−1, respectively. Four concentration levels of caffeic acid were 10, 30, 1000, and 30000 ng·mL^−1, respectively.
In the stability test, 24-hour stability (The samples were placed for 24 hours at 20°C and then measured), freeze-thaw cycles (The sample was injected after the temperature changing from −20°C to 20°C), and 4 weeks stability (The sample was determined after stored at −80°C for 4 weeks) of representative QC samples were all tested. All of them were assayed with six replicates.

Row | Compound | Freeze-thaw stability, percent remaining
21 | O=C(/C=C/c1ccc(O)c(O)c1)O[C@@H]1C[C@@](O)(C(=O)O)C[C@@H](O)[C@@H]1O [NCLA, neochlorogenic acid] | 87.0%
22 | C[C@@H]1O[C@@H](OC[C@H]2O[C@@H](Oc3c(-c4ccc(O)c(O)c4)oc4cc(O)cc(O)c4c3=O)[C@H](O)[C@@H](O)[C@@H]2O)[C@H](O)[C@H](O)[C@H]1O [Rutin, rutin] | 116%

same assay, conditions: high concentration level (3000-30000 ng·mL^−1), stored at −80°C for 4 weeks, six replicates

Row | Compound | Long stability Remain (%)
23 | O=C(/C=C/c1ccc(O)c(O)c1)O[C@@H]1C[C@@](O)(C(=O)O)C[C@@H](O)[C@@H]1O [NCLA, neochlorogenic acid] | 114%
24 | C[C@@H]1O[C@@H](OC[C@H]2O[C@@H](Oc3c(-c4ccc(O)c(O)c4)oc4cc(O)cc(O)c4c3=O)[C@H](O)[C@@H](O)[C@@H]2O)[C@H](O)[C@H](O)[C@H]1O [Rutin, rutin] | 89.6%

same assay, conditions: low concentration level (3-30 ng·mL^−1), freeze-thaw cycles −20°C to 20°C, six replicates

Row | Freeze-thaw stability, percent remaining | Compound
25 | 111% | O=C(/C=C/c1ccc(O)c(O)c1)O[C@@H]1C[C@@](O)(C(=O)O)C[C@@H](O)[C@@H]1O [NCLA, neochlorogenic acid]

same assay, conditions: low concentration level (3-30 ng·mL^−1), stored at −80°C for 4 weeks, six replicates

Row | Compound | Long stability Remain (%)
26 | C[C@@H]1O[C@@H](OC[C@H]2O[C@@H](Oc3c(-c4ccc(O)c(O)c4)oc4cc(O)cc(O)c4c3=O)[C@H](O)[C@@H](O)[C@@H]2O)[C@H](O)[C@H](O)[C@H]1O [Rutin, rutin] | 97.0%

same assay, conditions: medium concentration level (100-1000 ng·mL^−1), freeze-thaw cycles −20°C to 20°C, six replicates

Row | Freeze-thaw stability, percent remaining | Compound
27 | 82.9% | O=C(/C=C/c1ccc(O)c(O)c1)O[C@@H]1C[C@@](O)(C(=O)O)C[C@@H](O)[C@@H]1O [NCLA, neochlorogenic acid]
